Data set [1] relates to p53 wild-type HCT-116 cells. The format is cell-based. The settings on record: human.
Data set [2] is described as follows: Circular dichroism, % alpha helicity. Type of data set: physicochemical. The settings on record: CD, 70 µM peptide, 25 °C, from MRE at 222 nm, three scans averaged; Axin and p53 peptides in water, HIV-targeting peptides in 25% acetonitrile/water. As for the experimental part: The final concentration of the peptide samples was 70 µM. Circular dichroism (CD) measurements were performed on a Jasco model J-815 spectropolarimeter with a 1 mm Jasco quartz cell over the wavelength range of 180–250 nm. The scans were carried out at 0.2 nm resolution with 4 s average time at 25 °C. Data from three scans were averaged, base line corrected, and normalized to the mean residue ellipticity (MRE) following the equation: [θ]λ = [θ]obs/(10 × l × C × n). [θ]λ is MRE in deg × cm^2 × dmol^−1; [θ]obs is the measured ellipticity; C is the concentration of peptides in M; l is the optical pathlength in cm; and n is the number of residues in peptides. The % alpha helicity was calculated from the MRE values at 222 nm, using the equation % helicity = ([θ]222−[θ]0)/([θ]max−[θ]0) based on the previously reported method. [θ]222 is the MRE value at 222 nm; [θ]max is the maximum theoretical MRE value for a helix of n residues; and [θ]0 is the MRE value of the peptide in random coil conformation that usually equals to (2220-53T)[86].
On the technique in general: Circular dichroism is widely used to follow secondary structure.

Another data set in a line: circular dichroism. The settings on record: water; pH ns; 25 °C; 70 uM.

This note sets out measurements from PMC8763920, “Unprotected peptide macrocyclization and stapling via a fluorine-thiol displacement reaction” (Nature Communications, 2022).

In general, EC50 refers to the midpoint of the concentration-response curve. A low value points to a more potent agent.

With `CC(=O)N[C@@H](CCC(N)=O)C(=O)N[C@@H](CO)C(=O)N[C@@H](CCC(N)=O)C(=O)N[C@@H](CCC(N)=O)C(=O)N[C@H](C(=O)N[C@@H](Cc1ccccc1)C(=O)N[C@H]1CNC(=O)CSCc2ccc(cc2)CSCC(=O)NC[C@H](C(=O)N[C@@H](CCC(N)=O)C(=O)N[C@@H](CC(N)=O)C(N)=O)NC(=O)[C@H](CC(C)C)NC(=O)[C@H](CC(C)C)NC(=O)[C@H](CCCNC(=N)N)NC(=O)[C@H](Cc2c[nH]c3ccccc23)NC(=O)[C@H](CC(C)C)NC(=O)[C@H](CC(N)=O)NC1=O)[C@@H](C)O` [compound 87], it took 710 ± 180 nM to reach a half-maximal effect in data set [1] (EC50). Also, in data set [2], the “Helicity (%)” value amounted to 64%. This compound also returned a helicity in “circular dichroism” of 64%.
